The numbers were not newly measured in patent US5639739A, “Imidazole containing aminoboronic acids” (The DuPont Merck Pharmaceutical Company, priority 1995, dated 1997), which cites them from elsewhere.

Broadly, the Ki is the equilibrium dissociation constant of an inhibitor or competing ligand from its target.

Molecules are shown by their SMILES.

In one series the target is human thrombin (Homo sapiens, UniProt P00734).
A further series addresses chymotrypsin (Bos taurus, UniProt P00766). To be noted: Matteson et al. 1981.
The target in a further series is thrombin. The settings on record: literature values.

For the molecule `N=C(N)NCCC[C@@H](C=O)NC(=O)[C@@H]1CCCN1C(=O)[C@H](N)Cc1ccccc1` [D-phenylalanyl-prolyl-arginal], the inhibition constant Ki on human thrombin (human thrombin, literature values) was 75 nM.

In the case of `CC(=O)N[C@@H](Cc1ccccc1)B(O)O` [Acborophe-OH, R-1-acetamido-2-phenylethane boronic acid], the inhibition constant (Ki) on chymotrypsin is 4000 nM.

In the case of `N=C(N)NCCC[C@H](NC(=O)[C@@H]1CCCN1C(=O)[C@H](N)Cc1ccccc1)C(=O)CCl` [H-(D) Phe-Pro-ArgCH2 Cl], the “kind of inhibition of human thrombin” value on human thrombin (Kettner and Shaw 1979) is on record as “selective but irreversible inhibitor”.

`N#CC(CCCNC(=N)N)NC(=O)[C@@H]1CCCN1C(=O)[C@H](N)Cc1ccccc1` (stereo partly drawn) [D-phenylalanyl-prolyl-NHCH((CH2)3 NHC(=NH)NH2)--CN]: the Ki at thrombin was 700 nM.
